Values quoted from earlier work, collected in patent US12252709B2, “Culture media for culturing pluripotent stem cells in suspension” (Accellta Ltd., priority 2016, dated 2025).
Like-named read-outs stand apart in the source and are kept apart here.

How the values were obtained:
hESCs [1] = conditions: Matrigel matrix, seven days (Sato et al, 2004)
hESCs [2] = conditions: for background differentiation: MATRIGEL matrix

## O=C1Nc2cc(Br)ccc2/C1=C1/Nc2ccccc2/C1=N\O [BIO, 6-bromoindirubin-3′-oxime]
hESCs [1]
  maintenance of hESC properties: maintained hESC properties

## bFGF: basic fibroblast growth factor, medium supplement
hESCs [2]; serum replacement, 40 ng/ml bFGF [Xu et al, 2005b]
  background differentiation: 28%

B1: Noggin: protein factor used with 40 ng/ml bFGF (protein, UniProt Q13253 28-232, looked up)
Noggin: QHYLHIRPAPSDNLPLVDLIEHPDPIFDPKEKDLNETLLRSLLGGHYDPGFMATSPPEDRPGGGGGAAGGAEDLAELDQLLRQRPSGAMPSEIKGLEFSEGLAQGKKQRLSKKLRRKLQMWLWSQTFCPVLYAWNDLGSRFWPRYVKVGSCFSKRSCSVPEGMVCKPSKSVHLTVLRWRCQRRGGQRCGWIPIQYPIISECKCSC
hESCs [2]; 40 ng/ml bFGF and 0.5 μg/ml Noggin [Xu et al, 2005]
  background differentiation: 10%

B2: Flt-3 ligand: protein factor added to bFGF medium (protein, UniProt P49771 27-235, looked up)
Fms-related tyrosine kinase 3 …: TQDCSFQHSPISSDFAVKIRELSDYLLQDYPVTVASNLQDEELCGGLWRLVLAQRWMERLKTVAGSKMQGLLERVNTEIHFVTKCAFQPPPSCLRFVQTNISRLLQETSEQLVALKPWITRQNFSRCLELQCQPDSSTLPPPWSPRPLEATAPTAPQPPLLLLLLLPVGLLLLAAAWCLHWQRTRRRTPRPGEQVPPVPSPQDLLLVEH
hESCs [2]; as before with 75 ng/ml of Flt-3 ligand added
  differentiation: 20%
